Laboratory results reported in ChEMBL document CHEMBL5154799, “Discovery of a Novel Stilbene Derivative as a Microtubule Targeting Agent Capable of Inducing Cell Ferroptosis” (J Med Chem, 2022).
Calls of active or inactive are those of the source. No cut-off for these calls is given here.

Assays:
[1] = test system: HCT-8; test: Antiproliferative activity against human HCT-8 cells assessed as cell viability incubated for 48 hrs by MTT assay; type: functional, cell-based; details: HCT-8, 48 h
[2] = test system: MCF7; test: Antiproliferative activity against human MCF7 cells assessed as inhibition of cell proliferation incubated for 2 hrs by CCK-8 assay; type: functional, cell-based; details: DDE = dose-dependent effect
[3] = Clearance in ICR mouse at 1 mg/kg, iv single administration measured for 24 hrs post treatment by LC-MS/MS analysis; type: ADME, organism-based; details: in vivo
[4] = Oral bioavailability in ICR mouse at 10 mg/kg single administration measured for 24 hrs post treatment by LC-MS/MS analysis; type: ADME, organism-based; details: in vivo
[5] = Cytotoxicity against human L02 cells assessed as reduction in cell viability; type: toxicity, cell-based
[6] = test system: A549; test: Induction of apoptosis in human A549 cells assessed as cell viability pretreated with ferroptosis inhibitor desferoxamine for 24 hrs followed by incubation with compound at 20 nM and measured after 48 hrs by CCK-8 assay; type: functional, cell-based
[7] = test system: HeLa; test: Antiproliferative activity against human HeLa cells assessed as cell viability incubated for 48 hrs by MTT assay; type: functional, cell-based
[8] = Cytotoxicity against HUVEC cells assessed as reduction in cell viability; type: toxicity, cell-based; details: human
[9] = Acute oral toxicity in rat assessed as death at 550 mg/kg measured over 8 hours daily for 14 days; type: organism-based; details: in vivo, 336 h, time 14 day
[10] = Toxicity in human A549 cells xenografted in athymic nude BALB/c nude mouse assessed as morphological changes in liver at 10 mg/kg, ip measured after 30 days by H and E staining based histological analysis; type: organism-based; details: in vivo, 720 h, time 30 day
[11] = Selectivity ratio of IC50 for cytotoxicity against HLF cells assessed as reduction in cell viability to IC50 for cytotoxicity against human A549 cells assessed as reduction in cell viability; type: toxicity, cell-based; details: HLF cells versus A549 cells
[12] = test system: A549; test: Induction of cell death in human A549 cells assessed as vanished mitochondrial cristae at 10 nM for 12 hrs by TEM analysis; type: functional, cell-based
[13] = biological target: T1, Tubulin (Homo sapiens) (UniProt P68371+Q9H4B7+P0DPH7+P68366+Q13509+Q71U36+P04350+Q3ZCM7+P07437+P68363+Q9BQE3+Q6PEY2+Q13885+Q9BVA1+Q9BUF5); test: Inhibition of [3H]colchicine binding to tubulin (unknown origin) at 1.25 uM by competitive binding assay relative to control; type: protein-complex assay
[14] = Selectivity ratio of IC50 for cytotoxicity against human MCF-10A cells assessed as reduction in cell viability to IC50 for cytotoxicity against human A549 cells assessed as reduction in cell viability; type: toxicity, cell-based; details: MCF-10A cells versus A549 cells
[15] = biological target: Tubulin; test: Inhibition of [3H]colchicine binding to tubulin (unknown origin) by competitive binding assay; type: protein-complex assay, Homo sapiens
[16] = biological target: Tubulin; test: Inhibition of tubulin polymerization (unknown origin) assessed as fluorescence intensity emission at 410 nm for 60 mins; type: protein-complex assay, Homo sapiens
[17] = biological target: T1, Tubulin (Homo sapiens); test: Inhibition of [3H]colchicine binding to tubulin (unknown origin) at 2.5 uM by competitive binding assay relative to control; type: protein-complex assay
[18] = test system: HUVEC; test: Vascular disruptive effect in HUVEC cells assessed as reduction in tube formation at 10 nM measured after 6 to 9 hrs; type: functional, cell-based; details: Homo sapiens, time 6-9 hrs
[19] = test system: A549; test: Induction of apoptosis in human A549 cells assessed as early apoptotic cells at 200 nM after 24 hrs by annexin V-FITC/PI staining based flow cytometry analysis relative to control; type: functional
[20] = Half life in ICR mouse at 10 mg/kg, po single administration measured for 24 hrs post treatment by LC-MS/MS analysis; type: ADME, organism-based; details: in vivo
[21] = test system: A549; test: Cell cycle arrest in human A549 cells assessed as increase in accumulation in G2/M phase incubated for 24 to 48 hrs by PI staining based flow cytometry analysis; type: functional; details: dose 5-20 nM, time 24-48 hrs, DDE = dose-dependent effect
[22] = Cmax in ICR mouse at 1 mg/kg, iv single administration measured for 24 hrs post treatment by LC-MS/MS analysis; type: ADME, organism-based; parameters: time 24 hrs, dose 1 mg/kg, route iv; details: in vivo
[23] = Toxicity in human A549 cells xenografted in athymic nude BALB/c nude mouse assessed as morphological changes in lung at 10 mg/kg, ip measured after 30 days by H and E staining based histological analysis; type: organism-based; details: in vivo, 720 h, time 30 day
[24] = Tmax in ICR mouse at 10 mg/kg, po single administration measured for 24 hrs post treatment by LC-MS/MS analysis; type: ADME, organism-based; details: in vivo
[25] = biological target: T1, Tubulin (Homo sapiens); test: Induction of microtubule disruption in human A549 cells assessed as abnormal chromosomes at 5 to 20 uM incubated for 12 hrs by immunofluorescence based laser scanning confocal microscopic analysis; type: cell-based; details: dose 5-20 µM
[26] = test system: A549; test: In vivo antitumor activity against human A549 cells xenografted in athymic nude BALB/c mouse assessed as tumor growth inhibition at 10 mg/kg measured after 30 days relative to control; type: functional; details: A549, 720 h, time 30 day, read-out: TGI
[27] = biological target: T2, Phospholipid hydroperoxide glutathione peroxidase GPX4 (Homo sapiens) (UniProt P36969); test: Inhibition of GPX4 in human A549 cells assessed as decrease in GPX4 protein […] at 5 to 20 uM for 24 hrs by Western blotting analysis; type: cell-based; details: dose 5-20 µM
T2 sequence (whole entry): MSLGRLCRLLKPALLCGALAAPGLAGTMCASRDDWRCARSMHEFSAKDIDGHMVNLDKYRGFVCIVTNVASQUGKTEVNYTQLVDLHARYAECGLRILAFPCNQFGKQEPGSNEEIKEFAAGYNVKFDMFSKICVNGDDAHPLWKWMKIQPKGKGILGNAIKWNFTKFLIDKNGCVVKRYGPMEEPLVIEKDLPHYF

[28] = Tmax in ICR mouse at 1 mg/kg, iv single administration measured for 24 hrs post treatment by LC-MS/MS analysis; type: ADME, organism-based; details: in vivo
[29] = test system: A549; test: Induction of ferroptosis in human A549 cells assessed as depletion of GSH levels at 10 nM upto 12 hrs; type: functional, cell-based
[30] = Resistance index, ratio of IC50 for antiproliferative activity against human paclitaxel-resistant A2780/TAX cells to IC50 for antiproliferative activity against human A2780 cells; type: functional
[31] = test system: A549; test: Induction of ferroptosis in human A549 cells assessed as induction of lipid […] accumulation at 5 to 20 nM incubated for 24 hrs by C11-BODIPY-581/591 staining based flow cytometry analysis; type: functional, cell-based; details: dose 5-20 nM
[32] = test system: A549; test: In vivo antitumor activity against human A549 cells xenografted in athymic nude BALB/c mouse assessed as tumor volume at 10 mg/kg measured after 30 days (reference value: 1503.3 mm^3); type: functional; details: time 30 day
[33] = test system: A549; test: Induction of cell death in human A549 cells assessed as increased mitochondrial membrane density at 10 nM for 12 hrs by TEM analysis; type: functional, cell-based
[34] = test system: A549; test: Induction of ferroptosis in human A549 cells assessed as rupture of plasma membrane incubated for 24 hrs by CCK-8 assay; type: functional, cell-based
[35] = test system: MCF7; test: Antiproliferative activity against human MCF7 cells assessed as cell viability incubated for 48 hrs by MTT assay; type: functional, cell-based; details: MCF7, 48 h
[36] = Selectivity ratio of IC50 for cytotoxicity against HUVEC cells assessed as reduction in cell viability to IC50 for cytotoxicity against human A549 cells assessed as reduction in cell viability; type: toxicity, cell-based; details: HUVEC cells versus A549 cells

## C=C(c1cc(OC)c(OC)c(OC)c1)c1ccc(OC)c(O)c1NC(=O)CO
[1]
  IC50: 40 nM
[2]
  Activity: Dde
[3]
  clearance: 47.6 mL/min/kg
[4]
  bioavailability: 69.5%
[5]
  IC50: 1450 nM
[6]
  Activity: Active
[7]
  IC50: 20 nM
[8]
  IC50: 40 nM
[9]
  Activity: Toxic
[10]
  Activity: Non-Toxic
[11]
  selectivity ratio: 135
[12]
  Activity: Active
[13]
  inhibition: 48.4%
[14]
  selectivity ratio: 54
[15]
  IC50: 1130 nM
[16]
  IC50: 580 nM
[17]
  inhibition: 64.8%
[18]
  Activity: Active
[19]
  Activity: 50.36%
[20]
  half-life: 127 min
[21]
  Activity: Dde
[22]
  Cmax: 871 ng/mL
[23]
  Activity: Non-Toxic
[24]
  Tmax: 15 min
[25]
  Activity: Active
[26]
  inhibition in vivo at 10 mg/kg: 78.6%
[27]
  Activity: Active
[28]
  Tmax: 4.8 min
[29]
  Activity: Active
[30]
  Ratio IC50: 2
[31]
  Activity: Active
[32]
  Activity: 321.1 mm3
[33]
  Activity: Active
[34]
  Activity: Active
[35]
  IC50: 50 nM
[36]
  selectivity ratio: 4
